Reference: the supplement of paper PMC10307832

Assays:
Experiment in all cases: relative viability (nuclei count vs DMSO), 5 days (fraction); higher = more cells survive
XMD14-99 + Linsitinib = compound: CN1CCN(CC1)C2=CC(=C(C=C2)NC3=NC(=C(S3)C(=O)C4=C(C=CC=C4Cl)Cl)N)OC [XMD14-99] + C[C@]1(O)C[C@@H](c2nc(-c3ccc4ccc(-c5ccccc5)nc4c3)c3c(N)nccn32)C1 [Linsitinib] (partner 1 µM)
Summary of the method: (§1)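 For relative viability, nuclei counts in treated wells were divided by those in vehicle wells. Lung cancer cell lines had been pin-tool dosed in 1536-well plates the day after seeding and cultured for 5 days, then fixed and stained in one step (final 0.05% Triton X-100, 1% formaldehyde, 1 ug/ml Hoechst) and imaged at 4×. Doses were one drug alone or a fixed anchor-drug dose plus five library-drug doses (not always all listed) in √10 steps, and values are duplicate-plate medians.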

AZD1208 + Dasatinib = compound: N[C@@H]1CCCN(c2c(/C=C3\SC(=O)NC3=O)cccc2-c2ccccc2)C1 [AZD1208] + Cc1nc(Nc2ncc(C(=O)Nc3c(C)cccc3Cl)s2)cc(N2CCN(CCO)CC2)n1 [Dasatinib] (partner 0.075 µM)
Summary of the method: as §1

XMD14-99 + Bortezomib = compound: CN1CCN(CC1)C2=CC(=C(C=C2)NC3=NC(=C(S3)C(=O)C4=C(C=CC=C4Cl)Cl)N)OC [XMD14-99] + CC(C)C[C@H](NC(=O)[C@H](Cc1ccccc1)NC(=O)c1cnccn1)B(O)O [Bortezomib] (partner 0.002 µM)
Summary of the method: as §1

AZD1208 + Palbociclib = compound: N[C@@H]1CCCN(c2c(/C=C3\SC(=O)NC3=O)cccc2-c2ccccc2)C1 [AZD1208] + CC(=O)c1c(C)c2cnc(Nc3ccc(N4CCNCC4)cn3)nc2n(C2CCCC2)c1=O [Palbociclib] (partner 0.5 µM)
Summary of the method: as §1

| Cell Line | relative viability (XMD14-99 + Linsitinib; first compound 0.08 µM) | relative viability (XMD14-99 + Linsitinib; first compound 0.8 µM) | relative viability (XMD14-99 + Linsitinib; first compound 2.53 µM) | relative viability (XMD14-99 + Linsitinib; first compound 8 µM) | relative viability (AZD1208 + Dasatinib; first compound 0.08 µM) | relative viability (AZD1208 + Dasatinib; first compound 0.253 µM) | relative viability (AZD1208 + Dasatinib; first compound 0.8 µM) | relative viability (AZD1208 + Dasatinib; first compound 2.53 µM) | relative viability (AZD1208 + Dasatinib; first compound 8 µM) | relative viability (XMD14-99 + Bortezomib; first compound 0.08 µM) | relative viability (XMD14-99 + Bortezomib; first compound 0.8 µM) | relative viability (XMD14-99 + Bortezomib; first compound 2.53 µM) | relative viability (XMD14-99 + Bortezomib; first compound 8 µM) | relative viability (AZD1208 + Palbociclib; first compound 0.08 µM) | relative viability (AZD1208 + Palbociclib; first compound 0.253 µM) | relative viability (AZD1208 + Palbociclib; first compound 0.8 µM) | relative viability (AZD1208 + Palbociclib; first compound 2.53 µM) | relative viability (AZD1208 + Palbociclib; first compound 8 µM) |
| --- | --- | --- | --- | --- | --- | --- | --- | --- | --- | --- | --- | --- | --- | --- | --- | --- | --- | --- |
| NCI-H2228 | 0.702 | 0.524 | 0.476 | 0.221 | 0.476 | 0.521 | 0.398 | 0.43 | 0.342 | 1.17 | 0.974 | 0.871 | 0.337 | 0.764 | 0.911 | 0.804 | 0.6 | 0.656 |
| NCI-H2347 | 1.02 | 1.02 | 0.873 | 0.633 | 0.306 | 0.339 | 0.339 | 0.321 | 0.257 | 1.22 | 0.691 | 0.981 | 0.553 | 0.457 | 0.383 | 0.45 | 0.395 | 0.382 |
| NCI-H2405 | 0.913 | 0.992 | 0.9 | 0.566 | 0.205 | 0.198 | 0.202 | 0.21 | 0.184 | 1.06 | 0.99 | 0.9 | 0.874 | 0.497 | 0.536 | 0.505 | 0.51 | 0.418 |
| NCI-H3122 | 1 | 1.02 | 0.88 | 0.678 | 0.833 | 0.75 | 0.642 | 0.618 | 0.0921 | 0.965 | 0.948 | 0.913 | 0.692 | 0.206 | 0.155 | 0.149 | 0.223 | 0.164 |
| PC-3 [JPC-3] | 1.04 | 0.878 | 0.828 | 0.844 | 1.13 | 1.11 | 1.01 | 1.05 | 0.957 | 0.901 | 0.832 | 0.832 | 0.723 | 0.586 | 0.596 | 0.548 | 0.582 | 0.564 |
| PC-14 | 1.08 | 0.932 | 0.958 | 0.684 | 0.268 | 0.257 | 0.201 | 0.198 | 0.169 | 0.831 | 0.713 | 0.735 | 0.698 | 0.511 | 0.59 | 0.502 | 0.532 | 0.475 |
| RERF-LC-KJ | 0.878 | 0.888 | 0.873 | 0.743 | 0.685 | 0.608 | 0.546 | 0.595 | 0.483 | 1.07 | 1.18 | 1.08 | 0.852 | 1.05 | 1.09 | 1 | 1.02 | 0.802 |
| SK-LU-1 | 0.872 | 1.2 | 1.07 | 0.671 | 0.162 | 0.14 | 0.154 | 0.168 | 0.133 | 1.43 | 1.42 | 1.03 | 0.943 | 0.341 | 0.373 | 0.375 | 0.421 | 0.401 |
| SW 1573 | 0.723 | 0.785 | 0.782 | 0.885 | 0.404 | 0.537 | 0.438 | 0.586 | 0.319 | 1.09 | 0.868 | 0.932 | 0.936 | 0.264 | 0.268 | 0.265 | 0.346 | 0.259 |
